Drawing on PubChem BioAssay AID1845204 (Molecular Pharmacology Branch, DTP, NCI, 2023), this text covers IC50 and viability, T/C for four compounds.

Several values for one entry are separate records, joined by “and”; a condition that tells them apart may be missing. Equal values may be shown once.

The test system of this test is HSSY-II tumor spheroid viability. The test can be described thus: Anticancer human tumor HSSY-II cell line growth inhibition.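 As to all read-outs here: spheroids exposed to compounds for seven days before reading.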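 As to viability, T/C: percent of DMSO vehicle control viability so 100% = untreated level.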 As to conditions: spheroids with HUVEC and MSC; for viability, T/C: stronger effect = lower value. Summed up: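 Complex spheroids of malignant cells with endothelial cells and mesenchymal stem cells; agents alone or combined, from near clinical Cmax (or 10 microM if unknown) down in half-log steps, 0.25% DMSO final.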

[1] abbreviates: curve of first compound, second compound 1 µM.
Where [2] appears, read: curve of first compound, second compound 3.16 µM.
[3] abbreviates: curve of first compound, second compound 10 µM.
Setting [4] is: curve of first compound, second compound 31.6 µM.
The mark [5] stands for this setting: curve of first compound, second compound 100 µM.

Turning to `Cc1cc(C)c(CNC(=O)c2cc(-c3ccc(CN4CCOCC4)cc3)cc3c2cnn3C2CCCC2)c(=O)[nH]1` + Cn1nnc2c(C(N)=O)ncn2c1=O, the IC50 was greater than 10 µM under setting [1]; greater than 10 µM under setting [2]; greater than 10 µM under setting [3]; greater than 10 µM under setting [4]; greater than 10 µM under setting [5]. Besides, the viability, T/C (second compound 1 µM, first compound 0.0316 µM) is 98.4%; the viability, T/C (second compound 1 µM, first compound 0.1 µM) was 105%; the viability, T/C (second compound 1 µM, first compound 0.316 µM) is 92.8%; the viability, T/C (second compound 1 µM, first compound 1 µM) is 97.2%; the viability, T/C (second compound 1 µM, first compound 3.16 µM) is 91.4%; the viability, T/C (second compound 1 µM, first compound 10 µM) was 79.8%. Further, the viability, T/C (second compound 3.16 µM, first compound 0.0316 µM) was 101%; the viability, T/C (second compound 3.16 µM, first compound 0.1 µM) is 99.1%; the viability, T/C (second compound 3.16 µM, first compound 0.316 µM) is 95.1%; the viability, T/C (second compound 3.16 µM, first compound 1 µM) was 98.7%; the viability, T/C (second compound 3.16 µM, first compound 3.16 µM) was 89.9%; the viability, T/C (second compound 3.16 µM, first compound 10 µM) is 72.7%. In addition, the viability, T/C reads like this: (second compound 10 µM, first compound 0.0316 µM) 98%; (second compound 10 µM, first compound 0.1 µM) 98.2%; (second compound 10 µM, first compound 0.316 µM) 100%; (second compound 10 µM, first compound 1 µM) 93.5%; (second compound 10 µM, first compound 3.16 µM) 92.6%; (second compound 10 µM, first compound 10 µM) 68.4%. Also, the viability, T/C runs as follows: (second compound 31.6 µM, first compound 0.0316 µM) 104%; (second compound 31.6 µM, first compound 0.1 µM) 98%; (second compound 31.6 µM, first compound 0.316 µM) 94.4%; (second compound 31.6 µM, first compound 1 µM) 102%; (second compound 31.6 µM, first compound 3.16 µM) 88.4%; (second compound 31.6 µM, first compound 10 µM) 73.8%. For the same compound, the viability, T/C is, setting by setting: (second compound 100 µM, first compound 0.0316 µM) 94%; (second compound 100 µM, first compound 0.1 µM) 93.9%; (second compound 100 µM, first compound 0.316 µM) 91%; (second compound 100 µM, first compound 1 µM) 95.5%; (second compound 100 µM, first compound 3.16 µM) 85.2%; (second compound 100 µM, first compound 10 µM) 70.4%.
With `O=C(c1cc(Cc2n[nH]c(=O)c3ccccc23)ccc1F)N1CCN(C(=O)C2CC2)CC1`, the viability, T/C is, setting by setting: (compound 0.0949 µM) 99.1% and 104% and 93.2%; (compound 0.3 µM) 91.7% and 90.6% and 98.3%; (compound 0.949 µM) 82.3% and 86.8% and 90.7%; (compound 3 µM) 70.6% and 67.4% and 65.8%; (compound 9.49 µM) 30.7% and 11.5% and 17.9%. For the same compound, for the setting “curve of compound”, the IC50 was 6.16 µM and 4.28 µM and 4.38 µM.
Take `O=C(c1cc(Cc2n[nH]c(=O)c3ccccc23)ccc1F)N1CCN(C(=O)C2CC2)CC1` + Cn1nnc2c(C(N)=O)ncn2c1=O: the IC50 reads like this: under setting [1], 6.1 µM; under setting [2], 3.28 µM; under setting [3], 2.48 µM; under setting [4], 0.751 µM; under setting [5], less than 0.0949 µM. Moreover, the viability, T/C (second compound 1 µM, first compound 0.0949 µM) is 98%; the viability, T/C (second compound 1 µM, first compound 0.3 µM) was 93.6%; the viability, T/C (second compound 1 µM, first compound 0.949 µM) is 84.2%; the viability, T/C (second compound 1 µM, first compound 3 µM) was 63.6%; the viability, T/C (second compound 1 µM, first compound 9.49 µM) is 23.9%; the viability, T/C (second compound 1 µM, first compound 30 µM) is 59.1%. Besides, the viability, T/C reads like this: (second compound 3.16 µM, first compound 0.0949 µM) 94.9%; (second compound 3.16 µM, first compound 0.3 µM) 92.5%; (second compound 3.16 µM, first compound 0.949 µM) 81.9%; (second compound 3.16 µM, first compound 3 µM) 54.8%; (second compound 3.16 µM, first compound 9.49 µM) 20.1%; (second compound 3.16 µM, first compound 30 µM) 43.3%. For the same compound, the viability, T/C is 99.6% (second compound 10 µM, first compound 0.0949 µM); 93.3% (second compound 10 µM, first compound 0.3 µM); 81.3% (second compound 10 µM, first compound 0.949 µM); 46.5% (second compound 10 µM, first compound 3 µM); 12% (second compound 10 µM, first compound 9.49 µM); 56.4% (second compound 10 µM, first compound 30 µM). In addition, the viability, T/C by setting is: (second compound 31.6 µM, first compound 0.0949 µM) 95.5%; (second compound 31.6 µM, first compound 0.3 µM) 78.5%; (second compound 31.6 µM, first compound 0.949 µM) 44%; (second compound 31.6 µM, first compound 3 µM) 14%; (second compound 31.6 µM, first compound 9.49 µM) 11.3%; (second compound 31.6 µM, first compound 30 µM) 9.62%. Moreover, the viability, T/C runs as follows: (second compound 100 µM, first compound 0.0949 µM) 43.4%; (second compound 100 µM, first compound 0.3 µM) 25.2%; (second compound 100 µM, first compound 0.949 µM) 10.7%; (second compound 100 µM, first compound 3 µM) 10.1%; (second compound 100 µM, first compound 9.49 µM) 8.27%; (second compound 100 µM, first compound 30 µM) 9.08%.
On to `COc1ccc([C@@H](O)c2cc(-c3ncnc4cc(N5CCOCC5)ccc34)c(F)cc2Cl)nn1`, for which the viability, T/C runs as follows: (compound 0.0316 µM) 99% (2×) and 100%; (compound 0.1 µM) 108% and 97.5% and 98%; (compound 0.316 µM) 98.5% and 89.3% and 86.9%; (compound 1 µM) 67.9% and 60.5% and 66.9%; (compound 3.16 µM) 40.8% and 40.2% and 43.4%; (compound 10 µM) 15.2% and 20.4% and 21.2%. For the same compound, where the note is “curve of compound”, the IC50 is 2.1 µM and 1.83 µM and 2.26 µM.
